{"source": "EPA's ToxValDB 9.5 (doi:10.2903/j.efsa.2011.2162)", "key": {"Tagia sp.": {"test_system": "Tagia sp.", "conditions": "acute; mortality"}, "Apis mellifera": {"test_system": "Apis mellifera", "conditions": "acute; duration: 48 hours; dermal; mortality"}, "Daphnia magna": {"test_system": "Daphnia magna", "conditions": "chronic/long-term; duration: 21 days; reproduction"}, "Cyprinodon variegatus": {"test_system": "Cyprinodon variegatus", "conditions": "acute; duration: 96 hours; mortality"}, "Aphidius rhopalosiphi [1]": {"test_system": "Aphidius rhopalosiphi", "conditions": "not reported; reproduction"}, "Lepomis macrochirus": {"test_system": "Lepomis macrochirus", "conditions": "acute; duration: 96 hours; mortality"}, "Coturnix japonica": {"test_system": "Coturnix japonica", "conditions": "acute; oral; diet; mortality"}, "Oncorhynchus mykiss": {"test_system": "Oncorhynchus mykiss", "conditions": "chronic/long-term; duration: 96 days; growth"}, "Aphidius rhopalosiphi [2]": {"test_system": "Aphidius rhopalosiphi", "assay": "LR50; higher = less toxic", "conditions": "acute; duration: 48 hours; mortality"}, "[3]": {"conditions": "reproduction developmental, reproduction"}}}
{"smiles": "COP(=S)(OC)SCN1C(=O)c2ccccc2C1=O", "note": "[Phosmet]", "values": [{"measurement": "LC50", "setting": "Tagia sp.", "result": 104, "unit": "mg/kg"}, {"measurement": "LD50", "setting": "Apis mellifera", "result": 0.22, "unit": "µg/piece"}, {"measurement": "NOEC", "setting": "Daphnia magna", "result": 0.00078, "unit": "mg/L"}, {"measurement": "LC50", "setting": "Cyprinodon variegatus", "result": 0.17, "unit": "mg/L"}, {"measurement": "NOAEL", "setting": "Rattus norvegicus; acute, neurology", "result": 4.5, "unit": "mg/kg-day"}, {"measurement": "LD50", "setting": "Rattus norvegicus; acute, oral, mortality", "result": 113, "unit": "mg/kg"}, {"measurement": "NOAEL", "setting": "Rattus norvegicus; [3]", "result": 1, "unit": "mg/kg-day"}, {"measurement": "NOAEL", "setting": "Rattus norvegicus; subchronic, duration: 13 weeks, neurology", "result": 1.5, "unit": "mg/kg-day"}, {"measurement": "NOAEL", "setting": "Rattus norvegicus; subchronic, duration: 90 days, oral, other", "result": 2, "unit": "mg/kg-day"}, {"measurement": "LEL", "setting": "Aphidius rhopalosiphi [1]", "result": 1.41, "unit": "g/ha"}, {"measurement": "LC50", "setting": "Lepomis macrochirus", "result": 0.0197, "unit": "mg/L"}, {"measurement": "LC50", "setting": "Coturnix japonica", "result": 406, "unit": "mg/kg-day"}, {"measurement": "LD50", "setting": "Colinus virginianus; acute, oral, mortality", "result": 57, "unit": "mg/kg"}, {"measurement": "NOEC", "setting": "Colinus virginianus; [3]", "result": 7.5, "unit": "mg/kg-day"}, {"measurement": "NOEC", "setting": "Oncorhynchus mykiss", "result": 0.0032, "unit": "mg/L"}, {"measurement": "LR50", "setting": "Aphidius rhopalosiphi [2]", "result": 1.95, "unit": "g/ha"}]}
